Measurements published in patent US6511798B1, “Methods for the preparation of cell monolayers” (Zeneca Limited, priority 1998, dated 2003).
Read-outs that look alike come from different tables or passages of the source.

Assays:
[1] = tested on: cell monolayers on BIOCOAT "3 day" system or polycarbonate filters; settings: cited from earlier work
P-glycoprotein = P-glycoprotein (Homo sapiens, UniProt P08183); settings: 6 well Biocoat inserts; without verapamil
Description: (§1) Solutions of drug for screening are prepared with Hank's Balanced Salts solution (HBSS) buffered to pH7.4 with HEPES. Up to 1% DMSO may be added to aid solubilisation. These drug solutions are added to either the apical (1.5 ml) or the basolateral (3.0 ml) chambers of a 6 well system, and HBSS at pH7.4 is added to the opposite chamber. 0.5 ml samples are taken at regular time intervals from the receiver chamber and the volume replaced with fresh pre-warmed HBSS at pH7.4. A donor sample is taken initially and at the final time point. Samples are analysed using appropriate methods. The volumes are modified accordingly for other plate formats (e.g. 400 μL apical volume, 1 mL basolateral volume for a 24 well plate).

Caco-2 cell monolayer = experiment: in vitro
Description: (§2) This was carried out with the hydrophilic markers, ^14C-mannitol and Lucifer Yellow.
as §1
(§3) The results are expressed as cumulative amount or percentage transported versus time. An absorption apparent permeability coefficient, Papp, can been calculated where: [formula]
(§4) where dQ/dt is the permeability rate (over the linear portion of the curve), C0 is the initial concentration in the donor chamber and A (cm^2) is the surface area of the filter insert supporting the cell monolayer.

in vitro = settings: human, Caco-2, pH 7.4
Description: as §2, §1, §3, §4

[2] = molecular target: T1, apical di-peptide transporter (Homo sapiens, UniProt P46059); experiment: Transport of 14C-Gly-sar across Caco-2 monolayers, A-B and B-A; type: in vitro ADME; settings: pH 6 and 7.4
T1 construct: show functional expression of the dipeptide carrier and p-glycoprotein; endogenous in cells; host or cells: Caco-2 (ECACC 86010202)
T1 sequence (P46059 1-708): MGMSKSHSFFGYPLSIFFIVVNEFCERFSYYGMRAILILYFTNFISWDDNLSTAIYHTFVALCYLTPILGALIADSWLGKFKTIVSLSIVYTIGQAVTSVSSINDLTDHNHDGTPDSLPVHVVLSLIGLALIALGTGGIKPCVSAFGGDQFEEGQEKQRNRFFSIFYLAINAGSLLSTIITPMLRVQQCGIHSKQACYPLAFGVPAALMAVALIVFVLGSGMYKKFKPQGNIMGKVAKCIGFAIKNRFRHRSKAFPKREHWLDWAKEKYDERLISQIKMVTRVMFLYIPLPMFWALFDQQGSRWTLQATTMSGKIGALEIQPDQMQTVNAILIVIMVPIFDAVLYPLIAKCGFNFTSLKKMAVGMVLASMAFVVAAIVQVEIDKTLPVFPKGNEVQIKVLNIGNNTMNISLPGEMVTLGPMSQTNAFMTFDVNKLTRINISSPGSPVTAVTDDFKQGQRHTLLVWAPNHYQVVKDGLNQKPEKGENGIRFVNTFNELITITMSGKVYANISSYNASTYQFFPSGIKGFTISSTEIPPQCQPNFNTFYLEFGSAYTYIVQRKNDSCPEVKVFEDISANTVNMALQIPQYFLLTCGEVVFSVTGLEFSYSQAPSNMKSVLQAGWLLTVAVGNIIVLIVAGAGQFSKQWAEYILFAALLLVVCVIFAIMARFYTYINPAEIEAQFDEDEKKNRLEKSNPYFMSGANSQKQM
Description: Samples are analysed using appropriate methods.

[3] = Polycarbonate (1), Artursson et al 1996, 14C-mannitol

Sequence of P-glycoprotein (P08183 whole entry): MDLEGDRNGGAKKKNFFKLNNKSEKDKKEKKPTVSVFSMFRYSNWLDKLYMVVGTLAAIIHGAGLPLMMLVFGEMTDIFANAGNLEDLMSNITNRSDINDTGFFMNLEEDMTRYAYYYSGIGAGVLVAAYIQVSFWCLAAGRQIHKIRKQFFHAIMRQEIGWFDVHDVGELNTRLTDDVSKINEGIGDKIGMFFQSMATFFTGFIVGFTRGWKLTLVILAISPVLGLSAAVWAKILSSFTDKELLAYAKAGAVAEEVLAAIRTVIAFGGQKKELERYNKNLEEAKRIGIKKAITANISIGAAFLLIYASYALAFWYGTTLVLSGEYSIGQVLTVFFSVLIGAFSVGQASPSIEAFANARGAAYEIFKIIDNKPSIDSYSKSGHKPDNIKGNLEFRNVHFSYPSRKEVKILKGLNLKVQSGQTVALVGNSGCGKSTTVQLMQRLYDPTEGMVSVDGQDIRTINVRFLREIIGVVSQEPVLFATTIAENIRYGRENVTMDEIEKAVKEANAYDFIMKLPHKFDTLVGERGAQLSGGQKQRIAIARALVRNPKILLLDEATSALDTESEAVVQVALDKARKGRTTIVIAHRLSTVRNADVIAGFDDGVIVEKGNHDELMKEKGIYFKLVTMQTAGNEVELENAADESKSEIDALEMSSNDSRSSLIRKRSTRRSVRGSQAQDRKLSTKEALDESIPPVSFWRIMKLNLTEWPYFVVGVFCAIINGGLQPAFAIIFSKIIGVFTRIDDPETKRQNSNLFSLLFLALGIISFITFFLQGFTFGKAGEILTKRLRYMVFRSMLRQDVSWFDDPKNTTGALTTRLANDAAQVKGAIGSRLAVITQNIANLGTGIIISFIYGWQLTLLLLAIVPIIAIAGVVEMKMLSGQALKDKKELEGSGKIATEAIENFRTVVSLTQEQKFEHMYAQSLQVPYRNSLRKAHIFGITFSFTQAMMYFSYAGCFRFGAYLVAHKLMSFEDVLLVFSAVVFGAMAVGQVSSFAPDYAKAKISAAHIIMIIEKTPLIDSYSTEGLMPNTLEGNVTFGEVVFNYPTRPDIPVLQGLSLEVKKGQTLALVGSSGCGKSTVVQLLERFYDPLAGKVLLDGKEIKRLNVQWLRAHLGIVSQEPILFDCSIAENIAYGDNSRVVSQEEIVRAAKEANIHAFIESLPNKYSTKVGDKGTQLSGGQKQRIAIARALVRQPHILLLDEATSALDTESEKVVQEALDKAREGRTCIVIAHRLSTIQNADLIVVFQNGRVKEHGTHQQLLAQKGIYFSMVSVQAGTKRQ

Molecule: OC[C@@H](O)[C@@H](O)[C@H](O)[C@H](O)CO [^3H-Mannitol]
- Papp [1]: 0.76 cm.s^−1 × 10^6

Molecule: CC[C@]1(O)C[C@@H]2CN(CCc3c([nH]c4ccccc34)[C@@](C(=O)OC)(c3cc4c(cc3OC)N(C)[C@H]3[C@@](O)(C(=O)OC)[C@H](OC(C)=O)[C@]5(CC)C=CCN6CC[C@]43[C@@H]65)C2)C1 [^3H-vinblastine]
- transport B to A versus A to B (P-glycoprotein): significantly greater B to A transport

Molecule: Lucifer Yellow
- % Transported/hour ([1]; Polycarbonate (4), Hidalgo et al 1989, Lucifer Yellow): 0.11%
- % Transported/hour (Caco-2 cell monolayer; Caco-2): 0.13%
- Average Lucifer Yellow Transported (Caco-2 cell monolayer; Caco-2): 0.13%

Molecule: OC[C@@H](O)[C@@H](O)[C@H](O)[C@H](O)CO [^14C-Mannitol, ^14C-mannitol]
- Papp ([1]; BIOCOAT "3 day" system, 14C-mannitol): <4.0 cm.s^−1 × 10^6
- % Transported/hour [1, 3]: 0.05%
- Papp [1, 3]: 0.1-1.0 cm.s^−1 × 10^6
- % Transported/hour ([1]; Polycarbonate (3), Taub 1997, 14C-mannitol): 1.5%
- Papp (Caco-2 cell monolayer; Caco-2): 0.4 cm.s^−1 × 10^6
- % Transported/hour (Caco-2 cell monolayer; human, Caco-2, 1 h, pH 7.4): <0.5%
- Average Mannitol Transported (Caco-2 cell monolayer; human, Caco-2, 60 min, pH 7.4): 0.36-0.40%
- Papp at 60 min (in vitro): ~0.4 ×10⁻⁶ cm/s

Molecule: CN(CC(=O)O)[14C](=O)CN [^14C-Gly-sar]
- transport A-B versus B-A ([2]; 24 well PET inserts): increased transport in the A-B direction
- transport A-B versus B-A ([2]; collagen coated 6 well Biocoat filters): increased transport in the A-B direction
